{"source": "patent US20220241308A1", "about": "“NEURONAL FUNCTION MODULATING AGENT” (University of Tsukuba, priority 2019, published 2022)", "type_in_all_cases": "cell-based", "key": {"[1]": {"test_system": "AKT1 (AKT serine/threonine kinase 1)", "experiment": "Gene expression experiment (real-time PCR) in SH-SY5Y cells: AKT1", "conditions": "for expression of AKT1: 24 h", "procedure": "(§1) SH-SY5Y cells were seeded in 100 mm-cell dishes (BD Biocoat) at concentrations of 3.7×10^5 cells/mL (10 mL/dish) and cultured for 24 h at 37° C. and 5% CO2. Culture medium used was F12/DMEM (Gibco) supplemented with 1% non-essential amino acids (Gibco), 15% FBS (Bio West), and 1% penicillin/streptomycin (Lonza). After 24 h, the culture medium was completely removed with an aspirator, 10 mL of culture medium Opti-MEM(Gibco) was added to each dish, and the cells were cultured for 24 h at 37° C. and 5% CO2. RNA was extracted from the culture cells and analyzed for the expression of genes described below by real-time PCR (designated as “Control” in FIGS. 2 to 8).\n(§2) RNA extraction was performed using ISOGEN Reagent (Nippon Gene Co., Ltd.) in accordance with the protocol recommended by Nippo n Gene Co., Ltd. (see URL: https://www.nippongene.com/siyaku/product/extraction/tds/tds_isogen-rna-dna-protein.pdf). Real-time PCR was performed according to the protocol recommended by Thermo Fisher Scientific using a reagent kit for TaqMan Real-Time PCR (Thermo Fisher Scientific) (see URL: https://assets.thermofisher.com/TFS-Assets/LSG/manuals/4304449_TaqManPCRMM_UG.pdf).\n(§3) 24 h after seeding 100 mm-cell dishes (BD Biocoat) with SH-SY5Y cells, the culture medium was completely removed with an aspirator, amyloid β protein (Beta-Amyloid 1-42, AnaSpec) was mixed with Opti-MEM (Gibco) so that the final concentration was 5 μM, 10 mL of the mixture was added to each dish, the cells were cultured for 24 h at 37° C. and 5% CO2, and RNA was extracted. Except for performing the procedure described above, gene expression was analyzed as described above (designated as “Aβ” in FIGS. 2 to 8).\n(§4) 24 h after seeding 100 mm-cell dishes (BD Biocoat) with SH-SY5Y cells, the culture medium was completely removed with an aspirator, Sample 1 was mixed with culture medium Opti-MEM(Gibco) so that the final concentration was 12.56 μM, 9,990 μL of the mixture was added to each dish and allowed to stand for 10 min, amyloid β protein (Beta-Amyloid 1-42, AnaSpec) was mixed with Opti-MEM (Gibco) so that the final concentration was […], 10 μL of the mixture was added to each well, the cells were cultured for 24 h at 37° C. and 5% CO2, and RNA was extracted. Except for performing the procedure described above, Gene expression was analyzed as described above (designated as “Aβ+M3,5G” in FIGS. 2 to 8).\n(§5) Except that Sample 2 was used instead of Sample 1, gene expression was analyzed as described above (designated as “Aβ+M” in FIGS. 2 to 8).\nExcept that Sample 3 was used instead of Sample 1, gene expression was analyzed as described above (designated as “Aβ+M3G” in FIGS. 2 to 8).\n24 h after seeding 100 mm-cell dishes (BD Biocoat) with SH-SY5Y cells, the culture medium was completely removed with an aspirator, 10 mL of culture medium Opti-MEM(Gibco) mixed with Sample 1 was added to each dish, the cells were cultured for 24 h at 37° C. and 5% CO2, and RNA was extracted. Except for performing the procedure described above, gene expression was analyzed as described above (designated as “M3,5G” in FIGS. 2 to 8)."}, "[2]": {"test_system": "MAPK14 (mitogen-activated protein kinase 14)", "experiment": "Gene expression experiment (real-time PCR) in SH-SY5Y cells: MAPK14", "conditions": "24 h", "procedure": "as §1, §2, §3, §4, §5\nExcept that Sample 3 was used instead of Sample 1, gene expression was analyzed as described above (designated as “Aβ+M3G” in FIGS. 2 to 8). […]"}, "SH-SY5Y cells": {"test_system": "SH-SY5Y cells", "experiment": "Reactive oxygen species measurement experiment (OxiSelect Intracellular ROS assay kit)", "conditions": "12.56 μM with amyloid β protein 5 μM, 1 h", "procedure": "Specifically, OxiSelect™ Intracellular ROS assay kit (Cell Biolabs Ink) was used to measure the reactive oxygen species level according to protocol recommended by Cell Biolabs Ink (URL: https://www.cellbiolabs.com/sites/default/files/STA-342-ROS-assay-kit.pdf)) of Cell Biolabs Ink Co., Ltd. (designated as “Control” in FIG. 10).\nEach well of a 96-well plate (BD Biocoat) was seeded with SH-SY5Y cells (ATCC, model of neuronal cells) at a concentration of 2×10^5 cells/mL (100 μL/well) and the cells cultured at 37° C. and 5% CO2 for 24 h. Culture medium used was F12/DMEM (Gibco) supplemented with 1% non-essential amino acids (Gibco), 15% FBS (Bio West), and 1% penicillin/streptomycin (Lonza).\nAfter 24 h, the culture medium was completely removed with an aspirator, 20×DCFH-DA (reagent included in the assay kit) was mixed with culture medium Opti-MEM (Gibco) (reagent was diluted 20 times), 100 μL of the mixture was added to each well, and the cells were cultured at 37° C. and 5% CO2 for 1 h. The culture medium Opti-MEM with 20×DCFH-DA was then completely removed with an aspirator, […] of fresh Opti-MEM (Gibco) was added to each well, and the cells were cultured at 37° C. and 5% CO2 for 1 h. […] Fluorescence at 480 nm/530 nm was measured on a microplate reader (Sumitomo Dainippon Pharma) to find the relative ROS production (designated as “Control” in FIG. 10). […]"}, "[3]": {"conditions": "12.56 μM, amyloid β protein-treated cells, compared to “Aβ”"}, "[4]": {"conditions": "Sample 1 alone, no amyloid β, compared to “Control”"}}, "data": [{"smiles": "COc1cc(-c2[o+]c3cc(O)cc(OC4OC(CO)C(O)C(O)C4O)c3cc2OC2OC(CO)C(O)C(O)C2O)cc(OC)c1O", "note": "(centres unmarked) [M3,5G, Malvidin-3,5-diglucoside chloride]", "values": [{"measurement": "expression of AKT1", "setting": "[1]; [3]", "result": "significantly high"}, {"measurement": "expression of AKT1", "setting": "[1]; 12.56 μM, amyloid β protein-treated cells, compared to “Control”", "result": "significantly high"}, {"measurement": "expression of AKT1", "setting": "[1]; [4]", "result": "significantly increased"}, {"measurement": "activity in increasing the expression of AKT1", "setting": "[1]; amyloid β protein-treated cells, 12.56 μM, ranked against malvidin and malvidin-3-glucoside", "result": "highest activity"}, {"measurement": "expression of MAPK14", "setting": "[2]; [3]", "result": "significantly high"}, {"measurement": "expression of MAPK14", "setting": "[2]; [4]", "result": "significantly increased"}, {"measurement": "ROS production", "setting": "SH-SY5Y cells; compared to “Aβ”", "result": "significant reductions"}, {"measurement": "ROS production", "setting": "SH-SY5Y cells; compared to “Control”", "result": "no significance"}]}]}
